From US8778906B2, “Modulation of line-1 reverse transcriptase” (ALT Solutions, Inc., priority 2003, dated 2014)

Columns and labels:
Saos-2 cells = assay: AZT treatment of ALT cells, flow cytometry for telomere length (PNA probe) and cell cycle (PI); type: cell-based, human; conditions: Saos-2, 0.2 μM AZT, 14 days
Experimental: (§1) Telomere length in AZT treated and untreated cell lines was measured by flow cytometry with a telomere-specific peptide nucleic acid (PNA) probe^22,23. To determine cell cycle distribution, cells were stained with propidium iodide (PI)^22. […] AZT at the chosen concentration had no effect on telomere length or cell cycle distribution in the HeLa cells (not shown).
(§2) Cell lines: All cell lines used in this study were obtained from American Type Culture Collection (Rockville, Md.). The cells origins included osteosarcoma (Saos-2 and U-2 OS), liver ([…]) and uterine cervix (HeLa). Cells were cultured following ATCC recommendation. For treatment of the cells with AZT, the media was supplemented with 0.2 μM of 3′-azido-2′,3′-dideoxythymidine (Sigma)^28.
(§3) Telomere length measurement by flow cytometry: Cell were stained with telomere specific FITC conjugated (C3TA2)3 PNA (Applied Biosystems) probe and contrastained with 0.06 μg/ml PI as described^21.

[1] = tested on: WM1175 (malignant melanoma) or HUT292DM (lung cancer) cells; assay: Telomerase-positive xenograft tumors in immunodeficient mice treated with AZT; type: in vivo; conditions: AZT at the dose tested (total daily dose 10 mg/kg)
Experimental: After induction of tumors, mice in the experimental groups may be treated with AZT. Mice may be injected i.p. twice a day with solution of AZT in PBS with a total daily dose of 10 mg/kg. Mice in control group may be injected with PBS. Alternatively, AZT at the same daily dose may be given in drinking water. […] As a separate set of controls, telomerase-positive tumors in nude mouse may be induced by injecting the immunodeficient mice with WM1175 (malignant melanoma) or HUT292DM (lung cancer) cells instead of the transformed IIICF/c fibroblast cells.

U-2 OS cells = assay: AZT treatment of ALT cells, flow cytometry for telomere length (PNA probe) and cell cycle (PI); type: cell-based, human
Experimental: as §1
Rate of DNA synthesis was determined by incorporation of 5-bromodeoxyuridine (BdU)^24.
as §2, §3

For Cc1cn([C@H]2C[C@H](N=[N+]=[N-])[C@@H](CO)O2)c(=O)[nH]c1=O [AZT, 3′-azido-2′,3′-dideoxythymidine], the apoptosis (Saos-2 cells) was “massive apoptosis”, the telomere length (Saos-2 cells) was “telomere shortening” and the cell cycle distribution (Saos-2 cells; PI staining) was “G2 arrest”. The “inhibition of telomerase-positive tumors” value [1] was “cannot be inhibited”, the “DNA content (PI staining)” value (U-2 OS cells; AZT treated cells at later stages of treatment, compared to untreated cells) was “higher DNA content” and the “time of AZT treatment after which changes in cell cycle distribution, DNA synthesis and telomere length could be detected” value (U-2 OS cells; U-2 OS, 0.2 μM AZT) was 10 days. For the same molecule, the apoptosis (U-2 OS cells; U-2 OS, 0.2 μM AZT, 14 days) was “massive apoptosis”, the telomere length (U-2 OS cells; U-2 OS, 0.2 μM AZT, 14 days) was “telomere shortening” and the cell cycle distribution (U-2 OS cells; U-2 OS, 0.2 μM AZT, 14 days, PI staining) was “G2 arrest”.
